The subject of one series is Mouse. Details: method as in earlier work. The following applies: TOPKAT structural similar compounds; ref CPDB; cited from earlier work.
For series [1], the system named is Rat. The following applies: TOPKAT structural similar compounds; ref CPDB; cited from earlier work.
The subject of series [2] is Rat. The following applies: TOPKAT structural similar compounds, cited from earlier work.
A further series has as its target T1, J. bean Urease (Canavalia ensiformis, UniProt P07374).
T1 construct: purchased
Kind of series: Urease inhibition assay (indophenol method) on commercial Jack bean urease. The format is biochemical. The following applies: for Type of inhibition (in words): J. bean urease; for Vmax: J. bean urease with inhibitor. On the procedure:
(§1) Reaction mixtures comprising 25 μL of urease enzymes solution and 55 μL of sodium phosphate buffers containing 100 mM urea were incubated with 5 μL of tested compounds above (0.5 mM concentration) at 30 °C for 15 min in 96-well plates. Urease activity was determined by measuring the ammonia production using the indophenol method as described by Weatherburn. Briefly, 45 μL of each phenol reagent (1% w/v phenol and 0.005% w/v sodium nitroprussside) and 70 μL of alkali reagent (0.5% w/v NaOH and 0.1% active chloride NaOCl) were added to each well. The absorbance at 630 nm was measured after 50 min using a microplate reader (SPECTRO star Nano, Ortenberg, Germany). All reactions were performed in triplicate in a final volume of 200 μL. The results (change in absorbance per min) were processed by using MARS Data Analysis Version 2.41, software (SPECTRO star Nano, Ortenberg, Germany).
(§2) The assays were performed at pH 6.8. The percentage of inhibitions were calculated from the formula 100 − (ODtest well/ODcontrol) × 100. Thiourea was used as the standard inhibitor of Urease.
(§3) The concentrations of the test compounds that inhibited the hydrolysis of substrates by 50% (IC50) were determined by monitoring the effect of various concentrations of these compounds in the assays on the inhibition values. The IC50 values were then calculated using Graph Pad Prism 6 software.

The target of a further series is H. pylori Urease (Helicobacter pylori, UniProt P69996). Kind of series: Urease inhibition assay (indophenol method) on recombinant H. pylori urease. The settings on record: for Type of inhibition (in words): H. pylori urease; for Vmax: H. pylori urease with inhibitor. In kind it is biochemical. On the procedure: as §1, §2, §3
H. pylori Urease, sequence (P69996 whole entry): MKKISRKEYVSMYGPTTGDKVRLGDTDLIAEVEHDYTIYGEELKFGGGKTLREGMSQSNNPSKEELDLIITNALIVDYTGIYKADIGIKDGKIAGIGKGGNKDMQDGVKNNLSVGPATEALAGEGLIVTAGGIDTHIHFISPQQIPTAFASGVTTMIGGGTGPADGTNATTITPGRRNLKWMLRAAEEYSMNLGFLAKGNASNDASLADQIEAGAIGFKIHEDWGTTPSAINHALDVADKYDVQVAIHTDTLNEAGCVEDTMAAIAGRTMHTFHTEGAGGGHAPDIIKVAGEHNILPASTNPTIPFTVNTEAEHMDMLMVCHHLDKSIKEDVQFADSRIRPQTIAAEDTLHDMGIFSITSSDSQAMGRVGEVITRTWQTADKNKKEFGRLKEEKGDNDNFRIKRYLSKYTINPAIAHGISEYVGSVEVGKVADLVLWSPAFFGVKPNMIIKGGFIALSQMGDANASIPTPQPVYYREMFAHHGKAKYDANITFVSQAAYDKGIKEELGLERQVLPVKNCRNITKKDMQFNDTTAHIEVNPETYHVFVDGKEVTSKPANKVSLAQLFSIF
H. pylori Urease, sequence (P14916 whole entry, further chain): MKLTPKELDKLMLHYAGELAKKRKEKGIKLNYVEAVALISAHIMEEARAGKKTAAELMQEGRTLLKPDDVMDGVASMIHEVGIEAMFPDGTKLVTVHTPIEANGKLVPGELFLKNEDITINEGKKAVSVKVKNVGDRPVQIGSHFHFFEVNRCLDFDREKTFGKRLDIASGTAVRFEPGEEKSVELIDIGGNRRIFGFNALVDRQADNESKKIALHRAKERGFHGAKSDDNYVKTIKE
The test system of the next series is fibroblast cells. Kind of series: In vitro cytotoxicity, neutral red assay on fibroblast cells. The format is cell-based. The settings on record: for inhibition at 0.003 µM: Conc. 0.003 µM; for inhibition at 0.007 µM: Conc. 0.007 µM; for inhibition at 0.015 µM: Conc. 0.015 µM; for inhibition at 0.031 µM: Conc. 0.031 µM; for inhibition at 0.064 µM: Conc. 0.064 µM; for inhibition at 0.123 µM: Conc. 0.123 µM; for cytotoxicity (in words): in high concentrations. On the procedure:
The active compounds were selected and subjected to cytotoxicity evaluation using the neutral red assay. Cytotoxic assays were performed according to Borenfreund and Puerner.

This is an account of results in paper PMC8838460, “Expression, Purification, and Comparative Inhibition of Helicobacter pylori Urease by Regio-Selectively Alkylated Benzimidazole 2-Thione Derivatives” (Molecules, 2022).

Usually melting point stands for the temperature of the solid-liquid transition. The term IC50 denotes the concentration that inhibits the measured activity by half. A low value points to higher potency. As usually defined, the Vmax is the top rate of the reaction or transport when substrate is in excess. As usually defined, the inhibition is the relative decrease from the control value, in per cent.

Read-outs that look alike come from different tables or passages of the source.

T1 sequence (P07374 whole entry, looked up): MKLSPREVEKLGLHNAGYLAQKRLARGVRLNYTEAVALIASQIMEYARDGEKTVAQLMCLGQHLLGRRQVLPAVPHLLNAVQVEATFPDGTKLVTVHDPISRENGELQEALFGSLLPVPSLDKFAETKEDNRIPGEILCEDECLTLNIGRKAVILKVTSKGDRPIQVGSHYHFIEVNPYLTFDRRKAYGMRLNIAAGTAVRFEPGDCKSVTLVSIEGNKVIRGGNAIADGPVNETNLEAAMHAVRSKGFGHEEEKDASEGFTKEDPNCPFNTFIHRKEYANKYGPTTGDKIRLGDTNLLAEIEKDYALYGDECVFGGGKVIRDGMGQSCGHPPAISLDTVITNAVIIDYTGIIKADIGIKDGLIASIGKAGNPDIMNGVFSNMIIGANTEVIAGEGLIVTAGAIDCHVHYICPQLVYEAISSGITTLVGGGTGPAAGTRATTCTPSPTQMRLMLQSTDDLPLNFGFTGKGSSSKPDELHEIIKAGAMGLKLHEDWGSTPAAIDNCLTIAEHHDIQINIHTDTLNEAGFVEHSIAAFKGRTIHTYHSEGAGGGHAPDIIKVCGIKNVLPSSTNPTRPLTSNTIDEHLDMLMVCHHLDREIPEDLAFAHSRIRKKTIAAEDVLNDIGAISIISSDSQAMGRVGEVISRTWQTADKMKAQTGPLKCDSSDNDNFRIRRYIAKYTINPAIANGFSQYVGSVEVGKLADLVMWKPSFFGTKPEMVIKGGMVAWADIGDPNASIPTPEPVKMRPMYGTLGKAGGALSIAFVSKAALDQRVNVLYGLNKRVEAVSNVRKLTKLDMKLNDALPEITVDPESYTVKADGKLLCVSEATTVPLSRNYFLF

In the case of `CC(=O)NN` [Monoacetyl hydrazine], the “Actual Endpoint (-log C), Carcinogenic Potency TD50 Mouse” value in the series on Mouse is 3.876 -log C. Turning to `CCOc1ccc(NC(C)=O)cc1` [Phenacetin, reference compound], the “Actual Endpoint (-log C), Carcinogenic Potency TD50 Rat” value in the series on Rat [1] is 2.156 -log C.

In the case of `CCOC(CSc1nc2ccccc2[nH]1)OCC`, the melting point was found to be 80 °C.

As for `CC(=N)S` [Thioacetamide], in the series with Rat [1], the “Actual Endpoint (-log C), Carcinogenic Potency TD50 Rat” value is 3.815 -log C. For the molecule `CC(O)CN` (stereo not drawn) [1-AMINO-2-PROPANOL], the “Actual Endpoint (-log C), Rat Oral LD50” value in the series on Rat [2] (ref JACTDZ 6(1);53;87) is recorded as 1.554 -log C. Turning to `Cc1cccc(NC(N)=O)c1` [m-TOLYLUREA], the “Actual Endpoint (-log C), Rat Oral LD50” value in the series on Rat [2] (ref IIFBA4 12;195;69) is listed as 2.053 -log C. `CC(O)CSc1nc2ccccc2[nH]1` (stereo not drawn) gave a melting point of 250 °C. `NC(=O)Nc1ccccc1`: the “Actual Endpoint (-log C), Rat Oral LD50” value in the series with Rat [2] (ref IIFBA4 12;195;69) is reported as 1.833 -log C. As for `Sc1nc2ccccc2s1` [2-Mercaptobenzothiazole], the “Actual Endpoint (-log C), Carcinogenic Potency TD50 Rat” value in the series on Rat [1] is given as 2.687 -log C. In the case of `Oc1ccccc1O` [Catechol], in the series on Mouse, the “Actual Endpoint (-log C), Carcinogenic Potency TD50 Mouse” value is on record as 2.654 -log C. `c1ccc2[nH]c(SCC3CO3)nc2c1` (stereo not drawn) showed a melting point of 211 °C. Take `CCOCn1c(=S)[nH]c2ccccc21` [Compound 5, 1-(Ethoxymethyl)-1H-benzo[d]imidazole-2(3H)-thione]: at J. bean Urease, the IC50 stood at 290 ± 18 µM, the “Type of inhibition (in words)” value was “non-competitive” and the Vmax is 1.60 ± 0.04 µmol/min. At H. pylori Urease, the “Type of inhibition (in words)” value is recorded as “uncompetitive” and the Vmax was determined as 1.52 ± 0.024 µmol/min. Also, in the series on fibroblast cells (fibroblast cells), the inhibition at 0.003 µM was -28.8%, the inhibition at 0.007 µM is -15.9%, the inhibition at 0.015 µM was determined as 4.6% and the inhibition at 0.031 µM turned out to be 26.2%. Moreover, in the series with fibroblast cells (fibroblast cells), the inhibition at 0.064 µM is 52.1%, the inhibition at 0.123 µM was determined as 53.5% and the “cytotoxicity (in words)” value was “not cytotoxic”. Also, in the series on fibroblast cells (fibroblast cells, Conc. 0.009 µM, read-out: % Inhibition), the inhibition at 0.009 µM was -61.2%.

Take `N#CCSc1nc2ccccc2n1CC#N`: the melting point was 161 to 163 °C. Regarding Methylhydrazine s, in the series with Mouse, the “Actual Endpoint (-log C), Carcinogenic Potency TD50 Mouse” value is 3.785 -log C. For the molecule `O=c1ccc(=O)[nH][nH]1` [MALEIC HYDRAZIDE], the “Actual Endpoint (-log C), Rat Oral LD50” value in the series on Rat [2] (ref WRPCA2 9;119;70) is given as 1.47 -log C.

`CCCCSc1nc2ccccc2[nH]1` showed a melting point of 145 °C. Turning to `CCOCSc1nc2ccccc2n1COCC`, the melting point turned out to be 108 °C.

Turning to `OCCCSc1nc2ccccc2[nH]1`, the melting point was determined as 119 °C. For `Cc1ccc(NC(N)=O)cc1` [p-Tolylurea], the “Actual Endpoint (-log C), Carcinogenic Potency TD50 Mouse” value in the series on Mouse was 2.863 -log C.

Consider `Sc1nc2ccccc2[nH]1` [Compound 2, 1H-Benzimidazole-2(3H)-thione], for which, at J. bean Urease, the IC50 was determined as 260 ± 8 µM, the “Type of inhibition (in words)” value is “non-competitive” and the Vmax was determined as 1.53 ± 0.005 µmol/min. On H. pylori Urease, the “Type of inhibition (in words)” value is “non-competitive” and the Vmax was found to be 1.54 ± 0.057 µmol/min. Besides, the inhibition at 0.009 µM in the series with fibroblast cells (Fibroblast) was 20%. Besides, in the series with fibroblast cells (fibroblast cells), the inhibition at 0.003 µM turned out to be 40.4%, the inhibition at 0.007 µM was 44%, the inhibition at 0.015 µM is 49.4% and the inhibition at 0.031 µM worked out at 49.5%. Further, in the series on fibroblast cells (fibroblast cells), the inhibition at 0.064 µM stood at 80.6%, the inhibition at 0.123 µM came out at 82.5% and the “cytotoxicity (in words)” value is listed as “not cytotoxic”. For the molecule `CCCCCCCCCCCSc1nc2ccccc2[nH]1`, the melting point was found to be 104 °C. In the case of `CC(C)(Oc1ccc(C2CC2(Cl)Cl)cc1)C(=O)O` (stereo not drawn) [Ciprofibrate, reference compound], the “Actual Endpoint (-log C), Carcinogenic Potency TD50 Mouse” value in the series on Mouse is 4.669 -log C. Turning to `CNN` [METHYLHYDRAZINE], the “Actual Endpoint (-log C), Rat Oral LD50” value in the series with Rat [2] (ref XAWPA2 CWL) was 3.158 -log C. As to `CC(N)=O` [Acetamide], in the series on Rat [1], the “Actual Endpoint (-log C), Carcinogenic Potency TD50 Rat” value is given as 2.516 -log C. In addition, the “Actual Endpoint (-log C), Carcinogenic Potency TD50 Mouse” value with Mouse is reported as 1.293 -log C. For the molecule `NC(=S)Nc1ccccc1` [1-PHENYL-2-THIOUREA], the “Actual Endpoint (-log C), Rat Oral LD50” value with Rat [2] (ref JMPCAS 4;109;61) is recorded as 4.705 -log C.

Consider `S=C1NCCC(COc2ccccc2)O1` (stereo not drawn) [TIFEMOXONE, reference compound], for which the “Actual Endpoint (-log C), Rat Oral LD50” value in the series on Rat [2] (ref ATSUDG 1;229;78) is listed as 2.006 -log C. On to `CC(=O)Nc1ccc(O)cc1` [Acetaminophen, reference compound], for which, in the series on Rat [1], the “Actual Endpoint (-log C), Carcinogenic Potency TD50 Rat” value is 2.485 -log C. For `CCOc1ccccc1C(N)=O` [o-Ethoxybenzamide], the “Actual Endpoint (-log C), Carcinogenic Potency TD50 Mouse” value with Mouse is reported as 2.508 -log C. Turning to `O=Nc1ccc(Nc2ccccc2)cc1` [p-Nitrosodiphenylamine], the “Actual Endpoint (-log C), Carcinogenic Potency TD50 Rat” value in the series with Rat [1] is 2.994 -log C.
